Tested on: 186277-243-T-J2-PDC complex spheroids, viability
Assay: Anticancer human tumor 186277-243-T-J2-PDC patient-derived colon adenocarcinoma cell line growth inhibition [RAS]
Conditions: for IC50: curve of first compound; for viability, T/C: stronger effect = lower value; active = viability on the fitted dose curve at most 10% of control; inactive = the rest
Source text: RAS pathway inhibitors in Combinations in Complex Spheroids
A high-throughput screen of multi-cell type tumor spheroids was designed to identify active combinations of RAS pathway inhibitors and targeted small molecules. Complex spheroids include a stromal component modeled by human endothelial cells (HUVEC) and fibroblasts modeled by human mesenchymal stem cells (MSCs). The concentration ranges selected for each drug and investigational agent were based upon clinically achievable concentrations if the clinical Cmax of the agent was known.
Compounds. The drugs and investigational agents: abemaciclib (NSC768073), cobimetinib (NSC768068), divarasib (GDC6063, NSC841802), docetaxel (NSC628503), GDC-1971 (RLY-1971, NSC841576), gemcitabine (NSC613327), inavolisib (NSC800729), ipatasertib (NSC767898), KB-0742 (NSC834161), MRTX-1133 (NSC836407), osimertinib (NSC779217), RMC-4630 (NSC839698), RMC-6236 (NSC851965), RMC-6291 (NSC852671), Ro-3306 (NSC812927), sapanisertib (NSC764658), SN-38 (NSC673596), staurosporine (NSC755774), SY5609 (NSC837396), and tovorafenib (DAY101, NSC766906), were obtained from the National Cancer Institute (NCI) Developmental Therapeutics Program Chemical Repository. The FDA-approved anticancer drug set is available from the NCI Developmental Therapeutics Program. […] The stock solutions were prepared in dimethyl sulfoxide (DMSO, Sigma-Aldrich, St. Louis, MO, cat. D2650) at 800-fold the tested concentration and stored at -70 degrees C prior to their use. All drugs and investigational agents were tested over a range starting from a high concentration at or near the clinical Cmax and decreasing in half-log increments. If the clinical Cmax for an agent had not been determined, the highest concentration tested was 10 microM.
Cell Culture. All cells were maintained in an incubator at 37 degrees C and 5% CO2 with 95% humidity. The PDC lines were cultured according to standard operating procedures established by the NCI PDMR. All PDCs were thawed and cultured in Matrigel-coated flasks prepared with a working solution of 1X Ham's F-12 nutrient mix, without supplementation (Invitrogen, Waltham, MA, cat. 11765054), 100 U/mL penicillin-streptomycin (Invitrogen, cat. 15140122), and 2.5% Matrigel (Corning Inc., Corning, NY, cat. 354248) for the first three passages. The 362531-283-R-J2-PDC and 782815-120-R-J1-PDC lines were cultured in 6C/Colon 1B media, which includes advanced DMEM/F-12 (Thermo Fisher Scientific, cat. 12634028), 10 mM HEPES (Thermo Fisher Scientific, cat. 15630080), 1X GlutaMAX supplement (Thermo Fisher Scientific, cat. 35050061), 0.1 mg/mL primocin (InvivoGen, San Diego, CA, cat. ant-pm-2), 10% defined fetal bovine serum, heat inactivated (HyClone Laboratories Inc., Logan, UT, cat. SH30070.03HI), 50% L-WRN conditioned media (ATCC, cat. CRL-3276), 1.25 mM N-Acetyl-L-cysteine (Sigma-Aldrich, cat. A9165), 10 mM nicotinamide (Sigma-Aldrich, cat. N0636), 1X B-27 supplement (Thermo Fisher Scientific, cat. 17504044), 1X N-2 supplement (Thermo Fisher Scientific, cat. 17502048), 50 ng/mL human EGF (Thermo Fisher Scientific, cat. PHG0311), and 10 microM Y-27632 dihydrochloride (Tocris Bioscience, cat. 1254). The K12877-001-R-J1-PDC line was cultured in 6I media, which includes all 6C/Colon 1B media plus 10 ng/mL human FGF-10 (PeproTech, cat. 100-26), 1 ng/mL human FGF-2 (PeproTech, cat. 100-18B), 1 µM prostaglandin E2 (Tocris Bioscience, cat. 2296), […] hydrocortisone (Sigma-Aldrich, cat. H4001), and […] bovine insulin (Sigma-Aldrich, cat. I6634). The K86415-001-R-J1-PDC line was cultured in 6D media, which includes all 6C/Colon 1B media components minus the L-WRN conditioned media. The 485176-168-R4-J1-PDC was cultured in PANC media, which includes all 6C/Colon 1B media plus 100 ng/mL human FGF-10 (PeproTech, cat. 100-26), 500 nM SB-431542 (Selleckchem, cat. S1067), and 10 nM gastrin (Tocris Bioscience, cat. 3006). […]
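Also: spheroids exposed to compounds for 7 days before viability read.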

NC1c2ccccc2OC12CCN(c1cnc3c(N4CCCc5ncccc54)n[nH]c3n1)CC2 (centres undefined) + C#Cc1c(F)ccc2cc(O)cc(-c3ncc4c(N5CC6CCC(C5)N6)nc(OCC56CCCN5CC(F)C6)nc4c3F)c12
inactive: viability, T/C (second compound 0.0316 µM, first compound 0.0316 µM) 39.1% | viability, T/C (second compound 0.0316 µM, first compound 0.1 µM) 14.9% | viability, T/C (second compound 0.1 µM, first compound 0.0316 µM) 14.2% | viability, T/C (second compound 0.1 µM, first compound 0.1 µM) 9.2% | viability, T/C (second compound 0.316 µM, first compound 0.0316 µM) 10.8%
active: viability, T/C (second compound 0.0316 µM, first compound 0.316 µM) 8.55% | viability, T/C (second compound 0.0316 µM, first compound 1 µM) 7.47% | viability, T/C (second compound 0.0316 µM, first compound 3.16 µM) 5.16% | viability, T/C (second compound 0.0316 µM, first compound 10 µM) 3.58% | viability, T/C (second compound 0.1 µM, first compound 0.316 µM) 7.59% | viability, T/C (second compound 0.1 µM, first compound 1 µM) 7.67% | viability, T/C (second compound 0.1 µM, first compound 3.16 µM) 5.13% | viability, T/C (second compound 0.1 µM, first compound 10 µM) 3.21% | viability, T/C (second compound 0.316 µM, first compound 0.1 µM) 8.96% | viability, T/C (second compound 0.316 µM, first compound 0.316 µM) 7.32% | viability, T/C (second compound 0.316 µM, first compound 1 µM) 7.04% | viability, T/C (second compound 0.316 µM, first compound 3.16 µM) 5.5% | viability, T/C (second compound 0.316 µM, first compound 10 µM) 3.89% | viability, T/C (second compound 1 µM, first compound 0.0316 µM) 9.12% | viability, T/C (second compound 1 µM, first compound 0.1 µM) 7.57% | viability, T/C (second compound 1 µM, first compound 0.316 µM) 7.39% | viability, T/C (second compound 1 µM, first compound 1 µM) 5.61% | viability, T/C (second compound 1 µM, first compound 3.16 µM) 4.48% | viability, T/C (second compound 1 µM, first compound 10 µM) 3.29% | viability, T/C (second compound 3.16 µM, first compound 0.0316 µM) 8.98% | viability, T/C (second compound 3.16 µM, first compound 0.1 µM) 6.65% | viability, T/C (second compound 3.16 µM, first compound 0.316 µM) 5.07% | viability, T/C (second compound 3.16 µM, first compound 1 µM) 4.41% | viability, T/C (second compound 3.16 µM, first compound 3.16 µM) 5.32% | viability, T/C (second compound 3.16 µM, first compound 10 µM) 2.82% | viability, T/C (second compound 10 µM, first compound 0.0316 µM) 6.21% | viability, T/C (second compound 10 µM, first compound 0.1 µM) 5.08% | viability, T/C (second compound 10 µM, first compound 0.316 µM) 3.47% | viability, T/C (second compound 10 µM, first compound 1 µM) 2.88% | viability, T/C (second compound 10 µM, first compound 3.16 µM) 1.6% | viability, T/C (second compound 10 µM, first compound 10 µM) 0.47%
< 31.6 nM: IC50 (second compound 0.0316 µM) | IC50 (second compound 0.1 µM) | IC50 (second compound 0.316 µM) | IC50 (second compound 1 µM) | IC50 (second compound 3.16 µM) | IC50 (second compound 10 µM)

Nc1ccn(C2OC(CO)C(O)C2(F)F)c(=O)n1 (centres undefined) + CCn1c(-c2cc(N3CCN(C)CC3)cnc2C(C)OC)c2c3cc(ccc31)-c1csc(n1)CC(NC(=O)C1CC1C)C(=O)N1CCCC(N1)C(=O)OCC(C)(C)C2
4.76 nM: IC50 (second compound 0.000949 µM)
inactive: viability, T/C (second compound 0.000949 µM, first compound 0.00316 µM) 73% | viability, T/C (second compound 0.003 µM, first compound 0.00316 µM) 48% | viability, T/C (second compound 0.00949 µM, first compound 0.00316 µM) 12.7%
active: viability, T/C (second compound 0.000949 µM, first compound 0.01 µM) 8.42% | viability, T/C (second compound 0.000949 µM, first compound 0.0316 µM) 6.7% | viability, T/C (second compound 0.000949 µM, first compound 0.1 µM) 6.74% | viability, T/C (second compound 0.000949 µM, first compound 0.316 µM) 5.65% | viability, T/C (second compound 0.000949 µM, first compound 1 µM) 6.26% | viability, T/C (second compound 0.003 µM, first compound 0.01 µM) 6.35% | viability, T/C (second compound 0.003 µM, first compound 0.0316 µM) 5.14% | viability, T/C (second compound 0.003 µM, first compound 0.1 µM) 4.45% | viability, T/C (second compound 0.003 µM, first compound 0.316 µM) 4.85% | viability, T/C (second compound 0.003 µM, first compound 1 µM) 4.99% | viability, T/C (second compound 0.00949 µM, first compound 0.01 µM) 6.13% | viability, T/C (second compound 0.00949 µM, first compound 0.0316 µM) 4.72% | viability, T/C (second compound 0.00949 µM, first compound 0.1 µM) 4.79% | viability, T/C (second compound 0.00949 µM, first compound 0.316 µM) 5.02% | viability, T/C (second compound 0.00949 µM, first compound 1 µM) 4.12% | viability, T/C (second compound 0.03 µM, first compound 0.00316 µM) 7.84% | viability, T/C (second compound 0.03 µM, first compound 0.01 µM) 5.11% | viability, T/C (second compound 0.03 µM, first compound 0.0316 µM) 4.83% | viability, T/C (second compound 0.03 µM, first compound 0.1 µM) 4.21% | viability, T/C (second compound 0.03 µM, first compound 0.316 µM) 4.75% | viability, T/C (second compound 0.03 µM, first compound 1 µM) 3.8% | viability, T/C (second compound 0.0949 µM, first compound 0.00316 µM) 5.28% | viability, T/C (second compound 0.0949 µM, first compound 0.01 µM) 4.76% | viability, T/C (second compound 0.0949 µM, first compound 0.0316 µM) 4.18% | viability, T/C (second compound 0.0949 µM, first compound 0.1 µM) 3.97% | viability, T/C (second compound 0.0949 µM, first compound 0.316 µM) 3.99% | viability, T/C (second compound 0.0949 µM, first compound 1 µM) 3.27% | viability, T/C (second compound 0.3 µM, first compound 0.00316 µM) 5.42% | viability, T/C (second compound 0.3 µM, first compound 0.01 µM) 4.54% | viability, T/C (second compound 0.3 µM, first compound 0.0316 µM) 3.86% | viability, T/C (second compound 0.3 µM, first compound 0.1 µM) 3.78% | viability, T/C (second compound 0.3 µM, first compound 0.316 µM) 3.81% | viability, T/C (second compound 0.3 µM, first compound 1 µM) 3.23%
< 3.16 nM: IC50 (second compound 0.003 µM) | IC50 (second compound 0.00949 µM) | IC50 (second compound 0.03 µM) | IC50 (second compound 0.0949 µM) | IC50 (second compound 0.3 µM)

— PubChem BioAssay AID2060908 (Molecular Pharmacology Branch, DTP, NCI, 2025)
